Values after ≈ are worked out from the molar mass of the structure shown. Active and inactive are the calls of the source. No cut-off for these calls is given here.
What was measured:
[1] = Inhibition of proliferation of VZV thymidine kinase expressing OSTtk-/VZVtk+ -b cells; assay type: functional; settings: Homo sapiens
[2] = Inhibition of proliferation of VZV thymidine kinase expressing OSTtk-/VZVtk+ -a cells; assay type: functional; settings: Homo sapiens
OST = experiment: Inhibition of proliferation of thymidine kinase deficient OST cells; assay type: functional, cell-based; settings: Homo sapiens
Human alphaherpesvirus 1 [3] = experiment: Antiviral activity against thymidine kinase-deficient HSV1 B2006 in E6SM cells assessed as reduction of virus-induced cytopathogenicity; assay type: functional, organism-based; settings: Human alphaherpesvirus 1, B2006, E6SM
[4] = tested on: Mammalian orthoreovirus 1; experiment: Antiviral activity against Reovirus1 in vero cells assessed as reduction of virus-induced cytopathicity at 40 to >400 ug/mL; assay type: functional, organism-based
FM3A [5] = experiment: Inhibition of proliferation of thymidine kinase deficient mouse FM3A cells expressing HSV2 thymidine kinase; assay type: functional, cell-based
[6] = tested on: Vesicular stomatitis virus; experiment: Antiviral activity against VSV in HeLa cells at 40 to >400 ug/mL; assay type: functional, organism-based
Human respirovirus 3 = experiment: Antiviral activity against Parainfluenza 3 virus in vero cells assessed as reduction of virus-induced cytopathicity at 20 to >400 ug/mL; assay type: functional, organism-based
Human alphaherpesvirus 2 = experiment: Antiviral activity against HSV2 G in E6SM cells assessed as reduction of virus-induced cytopathogenicity; assay type: functional, organism-based; settings: Human alphaherpesvirus 2, G
FM3A [7] = experiment: Inhibition of proliferation of thymidine kinase deficient mouse FM3A cells; assay type: functional, cell-based
Coxsackievirus B4 = experiment: Antiviral activity against Coxsackie virus B4 in HeLa cells at 40 to >400 ug/mL; assay type: functional, organism-based
Human alphaherpesvirus 3 [8] = experiment: Antiviral activity against TK+ VZV OKA in HEL cells assessed as reduction of virus plaque formation; assay type: functional, organism-based; settings: Human alphaherpesvirus 3, OKA
[9] = Inhibition of proliferation of mouse FM3A/O cells; assay type: functional, cell-based
[10] = Cytotoxicity against E6SM cells assessed as alteration in cell morphology; assay type: cell-based; settings: human
Human betaherpesvirus 5 [11] = experiment: Antiviral activity against HCMV Davis in HEL cells assessed as reduction of virus plaque formation; assay type: functional, organism-based; settings: Human betaherpesvirus 5, Davis
Human alphaherpesvirus 1 [12] = experiment: Antiviral activity against thymidine kinase deficient HSV1 VMW1837 in E6SM cells assessed as reduction of virus-induced cytopathogenicity; assay type: functional, organism-based; settings: Human alphaherpesvirus 1, VMW1837, E6SM
Human alphaherpesvirus 3 [13] = experiment: Antiviral activity against thymidine kinase deficient VZV 07/1 in HEL cells assessed as reduction of virus plaque formation; assay type: functional, organism-based; settings: Human alphaherpesvirus 3, 07/1, HEL
[14] = tested on: Respiratory syncytial virus; experiment: Antiviral activity against Respiratory syncytial virus in HeLa cells at 40 to >400 ug/mL; assay type: functional, organism-based
Human alphaherpesvirus 3 [15] = experiment: Antiviral activity against TK+ VZV YS in HEL cells assessed as reduction of virus plaque formation; assay type: functional, organism-based; settings: Human alphaherpesvirus 3, YS
[16] = Cytotoxicity against HEL cells assessed as alteration in cell morphology; assay type: cell-based; settings: human
Punta Toro virus = experiment: Antiviral activity against Punta Toro virus in vero cells assessed as reduction of virus-induced cytopathicity at 20 to >400 ug/mL; assay type: functional, organism-based
Human betaherpesvirus 5 [17] = experiment: Antiviral activity against HCMV AD169 in HEL cells assessed as reduction of virus plaque formation; assay type: functional, organism-based; settings: Human betaherpesvirus 5, AD169, HEL
Sindbis virus = experiment: Antiviral activity against Sindbis virus in vero cells assessed as reduction of virus-induced cytopathicity at 40 to >400 ug/mL; assay type: functional, organism-based
FM3A [18] = experiment: Inhibition of proliferation of thymidine kinase deficient mouse FM3A cells expressing HSV1 thymidine kinase; assay type: functional, cell-based
Human alphaherpesvirus 3 [19] = experiment: Antiviral activity against thymidine kinase deficient VZV YS in HEL cells assessed as reduction of virus plaque formation; assay type: functional, organism-based; settings: Human alphaherpesvirus 3, YS
[20] = Cytotoxicity against HEL cells; assay type: cell-based; settings: human
Human alphaherpesvirus 1 [21] = experiment: Antiviral activity against HSV1 KOS in E6SM cells assessed as reduction of virus-induced cytopathogenicity; assay type: functional, organism-based; settings: Human alphaherpesvirus 1, KOS

`O=c1[nH]c(=O)n([C@@H]2O[C@H](CO)[C@@H](O)C2O)cc1/C=C/Br` (single isomer, unassigned) [SORIVUDINE] gave an IC50 [1] of 0.2 µM, an IC50 [2] of 0.15 µM and an IC50 (OST) of no less than 250 µM.

With `O=c1[nH]c(=O)n([C@H]2C[C@H](O)[C@@H](CO)O2)cc1C#CI` the EC50 (Human alphaherpesvirus 1 [3]) was 2 µg/mL (≈ 5.29 µM), the Activity [4] was “inactive” and the IC50 (FM3A [5]) was 0.35 µM. For the same molecule, the Activity [6] was “inactive”, the Activity (Human respirovirus 3) was “inactive” and the EC50 (Human alphaherpesvirus 2) was 7 µg/mL (≈ 18.5 µM). The IC50 (FM3A [7]) was 87 µM, the Activity (Coxsackievirus B4) was “inactive” and the EC50 (Human alphaherpesvirus 3 [8]) was 0.18 µM. For the same molecule, the IC50 [9] was 0.3 µM, the MCC [10] was no less than 100 µg/mL and the EC50 (Human betaherpesvirus 5 [11]) was 0.58 µM. The EC50 (Human alphaherpesvirus 1 [12]) was 7 µg/mL (≈ 18.5 µM), the EC50 (Human alphaherpesvirus 3 [13]) was 0.89 µM and the Activity [14] was “inactive”. It also gave an EC50 (Human alphaherpesvirus 3 [15]) of 0.11 µM, an MCC [16] of 200 µM and an IC50 [1] of 0.12 µM. For the same molecule, the Activity (Punta Toro virus) was “inactive”, the EC50 (Human betaherpesvirus 5 [17]) was 2.5 µM and the IC50 [2] was 0.063 µM. The Activity (Sindbis virus) was “inactive”, the IC50 (OST) was 34 µM and the IC50 (FM3A [18]) was 0.16 µM. For the same molecule, the EC50 (Human alphaherpesvirus 3 [19]) was 0.78 µM, the CC50 [20] was 0.76 µM and the EC50 (Human alphaherpesvirus 1 [21]) was 2 µg/mL (≈ 5.29 µM).

In the case of `C#Cc1cn([C@H]2C[C@H](O)[C@@H](CO)O2)c(=O)[nH]c1=O`, the EC50 (Human alphaherpesvirus 1 [3]) is reported as 0.7 µg/mL (≈ 2.78 µM), the Activity [4] is reported as “inactive” and the IC50 (FM3A [5]) is reported as 0.39 µM. The Activity [6] was “inactive”, the Activity (Human respirovirus 3) was “inactive” and the EC50 (Human alphaherpesvirus 2) was 2 µg/mL (≈ 7.93 µM). For the same molecule, the IC50 (FM3A [7]) was no less than 250 µM, the Activity (Coxsackievirus B4) was “inactive” and the EC50 (Human alphaherpesvirus 3 [8]) was 0.16 µM. For the same molecule, the IC50 [9] was 0.18 µM, the MCC [10] was greater than 400 µg/mL and the EC50 (Human betaherpesvirus 5 [11]) was 0.85 µM. The EC50 (Human alphaherpesvirus 1 [12]) was 4 µg/mL (≈ 15.9 µM), the EC50 (Human alphaherpesvirus 3 [13]) was 0.81 µM and the Activity [14] was “inactive”. For the same molecule, the EC50 (Human alphaherpesvirus 3 [15]) was 0.11 µM, the MCC [16] was greater than 200 µM and the IC50 [1] was 0.16 µM. The Activity (Punta Toro virus) was “inactive”, the EC50 (Human betaherpesvirus 5 [17]) was 1.2 µM and the IC50 [2] was 0.083 µM. For the same molecule, the Activity (Sindbis virus) was “inactive”, the IC50 (OST) was 23 µM and the IC50 (FM3A [18]) was 0.13 µM. For the same molecule, the EC50 (Human alphaherpesvirus 3 [19]) was 0.75 µM, the CC50 [20] was 2.5 µM and the EC50 (Human alphaherpesvirus 1 [21]) was 0.7 µg/mL (≈ 2.78 µM).

With `Nc1nc2c(ncn2COCCO)c(=O)[nH]1` [ACYCLOVIR] the EC50 (Human alphaherpesvirus 1 [3]) was 40 µg/mL (≈ 178 µM), the EC50 (Human alphaherpesvirus 2) was 0.07 µg/mL (≈ 0.311 µM) and the MCC [10] was greater than 400 µg/mL. For the same molecule, the EC50 (Human alphaherpesvirus 1 [12]) was 7 µg/mL (≈ 31.1 µM) and the EC50 (Human alphaherpesvirus 1 [21]) was 0.02 µg/mL (≈ 0.0888 µM).

`Nc1nc2c(ncn2COC(CO)CO)c(=O)[nH]1` [GANCICLOVIR] gave an EC50 (Human alphaherpesvirus 1 [3]) of 0.7 µg/mL (≈ 2.74 µM), an EC50 (Human alphaherpesvirus 2) of 0.007 µg/mL (≈ 0.0274 µM) and an MCC [10] greater than 100 µg/mL. It also gave an EC50 (Human alphaherpesvirus 1 [12]) of 0.02 µg/mL (≈ 0.0784 µM), an MCC [16] greater than 200 µM and an EC50 (Human betaherpesvirus 5 [17]) of 6.3 µM. The EC50 (Human alphaherpesvirus 1 [21]) was 0.002 µg/mL (≈ 0.00784 µM).

With `C[Si](C)(C)C#Cc1cn([C@H]2C[C@H](O)[C@@H](CO)O2)c(=O)[nH]c1=O` the EC50 (Human alphaherpesvirus 1 [3]) was 4 µg/mL (≈ 12.3 µM), the Activity [4] was “inactive” and the IC50 (FM3A [5]) was 0.48 µM. The Activity [6] was “inactive”, the Activity (Human respirovirus 3) was “inactive” and the EC50 (Human alphaherpesvirus 2) was 7 µg/mL (≈ 21.6 µM). For the same molecule, the IC50 (FM3A [7]) was no less than 250 µM, the Activity (Coxsackievirus B4) was “inactive” and the EC50 (Human alphaherpesvirus 3 [8]) was 0.26 µM. It also gave an IC50 [9] of 0.23 µM, an MCC [10] greater than 400 µg/mL and an EC50 (Human betaherpesvirus 5 [11]) of 0.75 µM. For the same molecule, the EC50 (Human alphaherpesvirus 1 [12]) was 7 µg/mL (≈ 21.6 µM), the EC50 (Human alphaherpesvirus 3 [13]) was 0.69 µM and the Activity [14] was “inactive”. For the same molecule, the EC50 (Human alphaherpesvirus 3 [15]) was 0.15 µM, the MCC [16] was 200 µM and the IC50 [1] was 0.2 µM. The Activity (Punta Toro virus) was “inactive”, the EC50 (Human betaherpesvirus 5 [17]) was 1.2 µM and the IC50 [2] was 0.041 µM. For the same molecule, the Activity (Sindbis virus) was “inactive”, the IC50 (OST) was 23 µM and the IC50 (FM3A [18]) was 0.16 µM. For the same molecule, the EC50 (Human alphaherpesvirus 3 [19]) was 0.9 µM, the CC50 [20] was 0.18 µM and the EC50 (Human alphaherpesvirus 1 [21]) was 2 µg/mL (≈ 6.17 µM).

— ChEMBL document CHEMBL1143708, “5-alkynyl analogs of arabinouridine and 2'-deoxyuridine: cytostatic activity against herpes simplex virus and varicella-zoster thymidine kinase gene-transfected cells” (J Med Chem, 2007)
